In assay [1] the target is T1, CydDC (C-His6-CydDC) (Escherichia coli, UniProt P23886+P29018, P29018:INS2NS).
T1 construct: gene cydD; full-length heterodimer (64 + 63 kDa); plasmid pHX100 in E. coli BL21
Put plainly: stimulation of ATPase activity (colorimetric Pi release). The assay is classed as biochemical. The following applies: peak 2 in 0.02% DDM; 5 mM compound; 2 mM ATP, 10 mM MgCl2, pH 7.5, 37 °C; activator.

Assay [2] addresses T1, CydDC (C-His6-CydDC). The description is as above. The assay is classed as biochemical.

For `N[C@@H](Cc1cnc[nH]1)C(=O)O` [L-histidine], the “% of basal ATPase activity at 5 mM” value at CydDC (C-His6-CydDC) [1] is “Significant changes in ATPase activity were invoked only with thiols and L-histidine”.
What is called EC50 is the concentration at which the effect is half-maximal. High values mean a less potent agent, low ones a more potent agent. The molecule `N[C@@H](CS)C(=O)O` [cysteine] displayed an EC50 at CydDC (C-His6-CydDC) [2] of 26 ± 3 µM.

The record behind these values is publication PMC4132815, “Structure and Function of the Bacterial Heterodimeric ABC Transporter CydDC” (The Journal of Biological Chemistry, 2014).
